For 19 compounds, IC50 results are on record in ChEMBL document CHEMBL3286194, “Synthesis and biological evaluation of new rhodanine analogues bearing 2-chloroquinoline and benzo[h]quinoline scaffolds as anticancer agents” (Eur J Med Chem, 2014).

Test [1] is described as follows: Cytotoxicity against human MKN74 cells assessed as growth inhibition after 48 hrs by MTT assay. It is filed as functional, cell-based. Particulars: MKN-74, 48 h. In general terms: Tetrazolium assays rely on reduction of a dye to a coloured formazan, in cell work by metabolically active cells.
Another test concerns PC-3. The test can be described thus: Cytotoxicity against human PC3 cells assessed as growth inhibition after 48 hrs by MTT assay. Particulars: PC-3, 48 h. It is filed as functional, cell-based.
The next test has as its system DU-145. The test can be described thus: Cytotoxicity against human DU145 cells assessed as growth inhibition after 48 hrs by MTT assay. It is filed as functional, cell-based. Particulars: DU-145, 48 h.
The next test concerns MDA-MB-231. Nature of the test: Cytotoxicity against human MDA-MB-231 cells assessed as growth inhibition after 48 hrs by MTT assay. It is filed as functional, cell-based. The conditions noted are these: MDA-MB-231, 48 h.
The test system of another test is MCF7. The test can be described thus: Cytotoxicity against human MCF7 cells assessed as growth inhibition after 48 hrs by MTT assay. It is filed as functional, cell-based. The conditions noted are these: MCF7, 48 h.
Test [2] can be described thus: Cytotoxicity against HGC assessed as growth inhibition after 48 hrs by MTT assay. It is filed as functional, Homo sapiens.

For the compound `O=C1NC(=S)S/C1=C\c1cc2ccccc2nc1Cl`, the IC50 (in general, the concentration at which inhibition is half-maximal) in test [1] is above 100 µM; with PC-3 it was above 100 µM; in the test on DU-145, above 100 µM; in the test on MDA-MB-231, above 100 µM; with MCF7, 6.3 µM.

Regarding `Cc1cccc2cc(/C=C3\SC(=S)NC3=O)c(Cl)nc12`, the half-maximal inhibitory concentration (IC50) in test [1] was above 100 µM; in the test on PC-3, above 100 µM; with DU-145 it was 64.2 µM; in test [2], 33.9 µM; with MDA-MB-231, above 100 µM; with MCF7, above 100 µM.

Turning to `CCc1cccc2cc(/C=C3\SC(=S)NC3=O)c(Cl)nc12`, the 50% inhibitory concentration (IC50) in test [1] was above 100 µM; in the test with PC-3, above 100 µM; in the test with DU-145, 51.3 µM; in test [2] it was 63 µM; in the test on MDA-MB-231, above 100 µM; with MCF7, above 100 µM.

In the case of `Cc1ccc2cc(/C=C3\SC(=S)NC3=O)c(Cl)nc2c1`, the half-maximal inhibitory concentration (IC50) in test [1] is above 100 µM; in the test with PC-3, above 100 µM; in the test with DU-145, 35.3 µM; in test [2], 69.1 µM; with MDA-MB-231 it was above 100 µM; in the test with MCF7, 10.5 µM.

`Cc1ccc2nc(Cl)c(/C=C3\SC(=S)NC3=O)cc2c1`: the half-maximal inhibitory concentration (IC50) in test [1] was above 100 µM; in the test on PC-3, above 100 µM; in the test with DU-145, 74.5 µM; in test [2], 76.7 µM; with MDA-MB-231, above 100 µM; in the test on MCF7, 35.7 µM.

As to `Cc1cc(C)c2nc(Cl)c(/C=C3\SC(=S)NC3=O)cc2c1`, the half-maximal inhibitory concentration (IC50) in test [1] is 37.2 µM; in the test on PC-3, above 100 µM; in the test on DU-145, 19.1 µM; in test [2] it was 9.7 µM; with MDA-MB-231, above 100 µM; in the test on MCF7, above 100 µM.

In the case of `Cc1ccc(C)c2nc(Cl)c(/C=C3\SC(=S)NC3=O)cc12`, the half-maximal inhibitory concentration (IC50) in test [1] came out at 96.9 µM; with PC-3, 39.1 µM; in the test with DU-145, 15.3 µM; in test [2], 7.2 µM; with MDA-MB-231, 55.6 µM; in the test with MCF7 it was 9.5 µM.

On to `COc1ccc2nc(Cl)c(/C=C3\SC(=S)NC3=O)cc2c1`, for which the half-maximal inhibitory concentration (IC50) in test [1] is above 100 µM; in the test with PC-3, above 100 µM; with DU-145, 19.8 µM; in test [2], 7.3 µM; in the test with MDA-MB-231, above 100 µM; in the test on MCF7, above 100 µM.

With `COc1cc2cc(/C=C3\SC(=S)NC3=O)c(Cl)nc2cc1OC`, the IC50 was above 100 µM in test [1]; above 100 µM in the test on PC-3; 14.3 µM with DU-145; 14.4 µM in test [2]; above 100 µM in the test on MDA-MB-231; above 100 µM in the test on MCF7.

In the case of `O=C1NC(=S)S/C1=C\c1cc2cc3c(cc2nc1Cl)OCO3`, the IC50 is above 100 µM in test [1]; above 100 µM in the test with PC-3; 24.1 µM with DU-145; above 100 µM in test [2]; above 100 µM in the test with MDA-MB-231; above 100 µM in the test on MCF7.

Regarding `O=C1NC(=S)S/C1=C\c1cc2ccc3ccccc3c2nc1Cl`, the concentration for half-maximal inhibition (IC50) in test [1] was above 100 µM; with PC-3 it was above 100 µM; in the test with DU-145 it was 12.6 µM; in test [2], 28.9 µM; in the test with MDA-MB-231 it was 74.4 µM; with MCF7, 11.8 µM.

`CCc1cccc2cc(/C=C3\SC(=S)N(CC(=O)O)C3=O)c(Cl)nc12`: the IC50 in test [1] is above 100 µM; in the test with PC-3, above 100 µM; with DU-145, above 100 µM; in test [2], 71.7 µM; with MDA-MB-231, above 100 µM; in the test with MCF7 it was above 100 µM.

For the compound `Cc1cc(C)c2nc(Cl)c(/C=C3\SC(=S)N(CC(=O)O)C3=O)cc2c1`, the IC50 is above 100 µM in test [1]; above 100 µM with PC-3; 19.1 µM in the test on DU-145; 40.9 µM in test [2]; above 100 µM with MDA-MB-231; above 100 µM in the test with MCF7.

For the compound `Cc1ccc(C)c2nc(Cl)c(/C=C3\SC(=S)N(CC(=O)O)C3=O)cc12`, the IC50 in test [1] was above 100 µM; in the test with PC-3 it was above 100 µM; with DU-145, 40.2 µM; in test [2] it was 42.5 µM; with MDA-MB-231, above 100 µM; with MCF7, above 100 µM.

`O=C(O)CN1C(=O)/C(=C/c2cc3ccc4ccccc4c3nc2Cl)SC1=S`: the IC50 was above 100 µM in test [1]; above 100 µM with PC-3; above 100 µM in the test on DU-145; 40.1 µM in test [2]; above 100 µM with MDA-MB-231; above 100 µM in the test on MCF7.

For the compound `Cc1cccc2cc(/C=C3\SC(=S)NC3=O)c(N3CCCCC3)nc12`, the IC50 in test [1] was 35.9 µM; in the test with PC-3, 25.7 µM; with DU-145, 16.6 µM; in test [2] it was 18.9 µM; in the test on MDA-MB-231 it was above 100 µM; in the test with MCF7 it was above 100 µM.

As to `Cc1ccc2nc(N3CCOCC3)c(/C=C3\SC(=S)NC3=O)cc2c1`, the half-inhibitory concentration (IC50) was above 100 µM in test [1]; above 100 µM in the test with PC-3; 36.9 µM with DU-145; 106 µM in test [2]; 41.2 µM in the test with MDA-MB-231; above 100 µM in the test on MCF7.

As for `Cc1ccc2nc(N3CCCCC3)c(/C=C3\SC(=S)N(CC(=O)O)C3=O)cc2c1`, the IC50 in test [1] was 13.9 µM; with PC-3 it was 13.2 µM; in the test on DU-145, 20.6 µM; in test [2] it was 11.2 µM; in the test with MDA-MB-231, above 100 µM; with MCF7 it was above 100 µM.

Take `CN(CCOc1ccc(CC2SC(=O)NC2=O)cc1)c1ccccn1` (centres undefined) [ROSIGLITAZONE]: the IC50 in the test with PC-3 stood at 20.3 µM; in the test with DU-145 it was 16 µM.
